According to US20200131196A1 (Mount Tam Therapeutics, Inc., priority 2017, published 2020):

Key:
[1] = system: Hs 729; assay: OncoPanel cell proliferation assay, Hs 729; format: cell-based, human; conditions: for GI50: read-out: Cell Count GI50; for IC50: read-out: Cell Count IC50
Method: (§1) Cells were grown in RPMI 1640, 10% FBS, 2 mM L-alanyl-L-glutamine, 1 mM Na pyruvate, or a special medium. Cells were seeded into 384-well plates and incubated in a humidified atmosphere of 5% CO2 at 37° C. Compounds were added the day following cell seeding. At the same time, a time zero untreated cell plate was generated. After a 3-day incubation period, cells were fixed and stained to allow fluorescence imaging of nuclei. Compounds (1 mM stock solutions) were serially diluted in half-log steps from the highest test concentration ([…]), and assayed over 10 concentrations with a maximum assay concentration of 0.1% DMSO. Automated fluorescence microscopy was carried out using a Molecular Devices ImageXpress Micro XL high-content imager, and images were collected with a 4× objective. 16-bit TIFF images were acquired and analyzed with MetaXpress 5.1.0.41 software.
(§2) Cell proliferation was measured by the fluorescence intensity of an incorporated nuclear dye. The output is referred to as the relative cell count, where the measured nuclear intensity is transformed to percent of control (POC) using the following formula: […]
(§3) Cellular response parameters were calculated using nonlinear regression to a sigmoidal single-site dose response model:
(§4) EC50 is the test compound concentration at the curve inflection point or half the effective response (parameter C of the fitted curve solution). GI50 is the concentration needed to reduce the observed growth by half (midway between the curve maximum and the time zero value). “Cell Count Activity Area” is an estimate of the integrated area above the curve (Barretina, et al. The Cancer Cell Line Encyclopedia enables predictive modelling of anticancer drug sensitivity. Nature 483: 603-607). […] In rare instances, values <0 or >10 may be observed. […] Curve-fitting, calculations, and report generation was performed using a custom data reduction engine and MathIQ based software (AIM).

[2] = system: OVCAR3; assay: OncoPanel cell proliferation assay, OVCAR3; conditions: for GI50: OVCAR-3, read-out: Cell Count GI50; for Cell Count Activity Area: OVCAR3
Method: (§5) Cells were seeded into 384-well plates and incubated in a humidified atmosphere of 5% CO2 at 37° C. Compounds were added the day following cell seeding. At the same time, a time zero untreated cell plate was generated. After a 3-day incubation period, cells were fixed and stained to allow fluorescence imaging of nuclei. Compounds (1 mM stock solutions) were serially diluted in half-log steps from the highest test concentration (1 micromol), and assayed over 10 concentrations with a maximum assay concentration of 0.1% DMSO. Automated fluorescence microscopy was carried out using a Molecular Devices ImageXpress Micro XL high-content imager, and images were collected with a 4× objective. 16-bit TIFF images were acquired and analyzed with MetaXpress 5.1.0.41 software.
(§6) GI50 is the concentration needed to reduce the observed growth by half (midway between the curve maximum and the time zero value). […] In rare instances, values <0 or >10 may be observed. […] Curve-fitting, calculations, and report generation was performed using a custom data reduction engine and MathIQ based software (AIM).

[3] = system: Hs 852.T; assay: OncoPanel cell proliferation assay, Hs 852.T; format: cell-based, human; conditions: for GI50: read-out: Cell Count GI50
Method: as §1, §2, §3, §4

[4] = system: CRO-AP2; assay: OncoPanel cell proliferation assay, CRO-AP2; format: cell-based, human; conditions: for GI50: read-out: Cell Count GI50
Method: as §1, §2, §3, §4

[5] = system: U-138MG; assay: OncoPanel cell proliferation assay, U-138MG; format: cell-based, human; conditions: U-138MG; for EC50: read-out: Cell Count EC50; for GI50: read-out: Cell Count GI50
Method: as §1, §2, §3, §4

[6] = system: NCI-H510A; assay: OncoPanel cell proliferation assay, NCI-H510A; format: cell-based, human; conditions: for EC50: read-out: Cell Count EC50; for GI50: read-out: Cell Count GI50
Method: as §1, §2, §3, §4

[7] = system: SNU-C2B; assay: OncoPanel cell proliferation assay, SNU-C2B; format: cell-based, human; conditions: for EC50: read-out: Cell Count EC50; for GI50: read-out: Cell Count GI50
Method: as §1, §2, §3, §4

[8] = system: SK-NEP-1; assay: OncoPanel cell proliferation assay, SK-NEP-1; conditions: for EC50: SK-NEP-1, read-out: Cell Count EC50; for GI50: SK-NEP-1, read-out: Cell Count GI50; for Cell Count Activity Area: SK-NEP-1
Method: as §5, §6

[9] = system: CaOV3; assay: OncoPanel cell proliferation assay, CaOV3; format: cell-based, human; conditions: for GI50: Caov-3, read-out: Cell Count GI50
Method: as §1, §2, §3, §4

[10] = system: SK-N-AS; assay: OncoPanel cell proliferation assay, SK-N-AS; format: cell-based, human; conditions: for EC50: read-out: Cell Count EC50; for GI50: read-out: Cell Count GI50
Method: as §1, §2, §3, §4

[11] = system: T24; assay: OncoPanel cell proliferation assay, T24; format: cell-based, human; conditions: for GI50: T-24, read-out: Cell Count GI50
Method: as §1, §2, §3, §4

[12] = system: G-402; assay: OncoPanel cell proliferation assay, G-402; format: cell-based, human; conditions: for GI50: read-out: Cell Count GI50
Method: as §1, §2, §3, §4

[13] = system: 786-O; assay: OncoPanel cell proliferation assay, 786-O; format: cell-based, human; conditions: 786-O; for EC50: read-out: Cell Count EC50; for GI50: read-out: Cell Count GI50
Method: as §1, §2, §3, §4

[14] = system: U-87 MG; assay: OncoPanel cell proliferation assay, U-87 MG; format: cell-based, human; conditions: for GI50: read-out: Cell Count GI50
Method: as §1, §2, §3, §4

[15] = Homo sapiens, read-out: Cell Count EC50
[16] = Homo sapiens, read-out: Cell Count IC50

CN[C@@H]1C[C@H]2O[C@@](C)([C@@H]1OC)n1c3ccccc3c3c4c(c5c6ccccc6n2c5c31)C(=O)NC4 [Staurosporine, reference compound]
Cell Count Activity Area [1]: 4.06 | GI50 ([1]; Homo sapiens): 0.898 nM | IC50 ([1]; Homo sapiens): 7.04 nM | GI50 ([2]; Homo sapiens): 6.11 nM | Cell Count Activity Area [2]: 3.41 | Cell Count Activity Area [3]: 3.16 | GI50 ([3]; Homo sapiens): 1.35 nM | Cell Count Activity Area [4]: 3.99 | GI50 ([4]; Homo sapiens): 13.2 nM | EC50 ([5]; Homo sapiens, U138-MG): 0.857 nM | GI50 ([5]; Homo sapiens, U138-MG): 1.05 nM | Cell Count Activity Area [5]: 3.72 | Cell Count Activity Area [6]: 1.68 | EC50 ([6]; Homo sapiens): 39.8 nM | GI50 ([6]; Homo sapiens): 56.5 nM | Cell Count Activity Area [7]: 3.80 | EC50 ([7]; Homo sapiens): 15.8 nM | GI50 ([7]; Homo sapiens): 4.97 nM | EC50 ([8]; Homo sapiens): 48.2 nM | GI50 ([8]; Homo sapiens): 36.5 nM | Cell Count Activity Area [8]: 2.78 | Cell Count Activity Area [9]: 5.31 | GI50 ([9]; Homo sapiens): 0.273 nM | Cell Count Activity Area [10]: 4.83 | EC50 ([10]; Homo sapiens): 1.7 nM | GI50 ([10]; Homo sapiens): 1.27 nM | Cell Count Activity Area [11]: 5.96 | GI50 ([11]; Homo sapiens): 0.829 nM | Cell Count Activity Area [12]: 5.93 | GI50 ([12]; Homo sapiens): 0.664 nM | Cell Count Activity Area [13]: 4.87 | EC50 ([13]; Homo sapiens, 786-0): 3.58 nM | GI50 ([13]; Homo sapiens, 786-0): 3.41 nM | Cell Count Activity Area [14]: 3.25 | GI50 ([14]; Homo sapiens): 0.836 nM

CO[C@H]1C[C@@H]2CC[C@@H](C)[C@@](O)(O2)C(=O)C(=O)N2CCCC[C@H]2C(=O)O[C@H]([C@H](C)C[C@@H]2CC[C@@H](O)[C@H](OC)C2)CC(=O)[C@H](C)/C=C(\C)[C@@H](O)[C@@H](OC)C(=O)[C@H](C)C[C@H](C)/C=C/C=C/C=C/1C [Rapamycin, reference compound]
Cell Count Activity Area [1]: 0.55 | EC50 [1, 15]: > 1000 nM | GI50 ([1]; Homo sapiens): > 1000 nM | IC50 ([1]; Homo sapiens): > 1000 nM | EC50 ([2]; Homo sapiens, OVCAR-3, read-out: Cell Count EC50): 1.53 nM | GI50 ([2]; Homo sapiens): 124 nM | IC50 ([2]; Homo sapiens, OVCAR-3, read-out: Cell Count IC50): > 1000 nM | Cell Count Activity Area [2]: 2.08 | Cell Count Activity Area [3]: 1.43 | EC50 [3, 15]: > 1000 nM | GI50 ([3]; Homo sapiens): > 1000 nM | IC50 [3, 16]: > 1000 nM | Cell Count Activity Area [4]: 6.22 | EC50 [4, 15]: 0.119 nM | GI50 ([4]; Homo sapiens): 0.155 nM | IC50 [4, 16]: 0.187 nM | EC50 ([5]; Homo sapiens, U138-MG): 0.0363 nM | GI50 ([5]; Homo sapiens, U138-MG): 0.436 nM | IC50 ([5]; Homo sapiens, U138-MG, read-out: Cell Count IC50): > 1000 nM | Cell Count Activity Area [5]: 3.14 | Cell Count Activity Area [6]: 1.63 | EC50 ([6]; Homo sapiens): > 1000 nM | GI50 ([6]; Homo sapiens): > 1000 nM | IC50 [6, 16]: > 1000 nM | Cell Count Activity Area [7]: 1.99 | EC50 ([7]; Homo sapiens): > 1000 nM | GI50 ([7]; Homo sapiens): > 1000 nM | IC50 [7, 16]: > 1000 nM | EC50 ([8]; Homo sapiens): 0.293 nM | GI50 ([8]; Homo sapiens): 0.361 nM | IC50 ([8]; Homo sapiens, SK-NEP-1, read-out: Cell Count IC50): 1.47 nM | Cell Count Activity Area [8]: 4.22 | Cell Count Activity Area [9]: 2.40 | EC50 ([9]; Homo sapiens, Caov-3, read-out: Cell Count EC50): > 1000 nM | GI50 ([9]; Homo sapiens): > 1000 nM | IC50 ([9]; Homo sapiens, Caov-3, read-out: Cell Count IC50): > 1000 nM | Cell Count Activity Area [10]: 3.58 | EC50 ([10]; Homo sapiens): 0.231 nM | GI50 ([10]; Homo sapiens): 0.432 nM | IC50 [10, 16]: > 1000 nM | Cell Count Activity Area [11]: 4.39 | EC50 ([11]; Homo sapiens, T-24, read-out: Cell Count EC50): 0.0783 nM | GI50 ([11]; Homo sapiens): 0.474 nM | IC50 ([11]; Homo sapiens, T-24, read-out: Cell Count IC50): 2.1 nM | Cell Count Activity Area [12]: 4.68 | EC50 [12, 15]: 0.111 nM | GI50 ([12]; Homo sapiens): 0.182 nM | IC50 [12, 16]: 0.334 nM | Cell Count Activity Area [13]: 4.17 | EC50 ([13]; Homo sapiens, 786-0): 0.227 nM | GI50 ([13]; Homo sapiens, 786-0): 1.13 nM | IC50 ([13]; Homo sapiens, 786-0, read-out: Cell Count IC50): 3.18 nM | Cell Count Activity Area [14]: 3.79 | EC50 [14, 15]: 0.104 nM | GI50 ([14]; Homo sapiens): 0.384 nM | IC50 [14, 16]: > 1000 nM
